Measured values from patent EP4810052A2, “HCRHR2 SELECTIVE POLYPEPTIDES” (Gubra A/S, priority 2023, dated 2026).
Entries after “also recorded” stand apart in the source; their conditions may differ. Marks after values point to notes of the source that are not given here. Starred links: 1 amine or outer side, 2 acyl side, 3 side chain; linkers in the order of their positions; H or OH if unused. Non-standard residues stand in square brackets, D forms with d. Residues, ends and D or L forms follow the SMILES beside them. Groups on a side chain read outwards from the residue. *: point of attachment. C20 diacid = O=C(O)CCCCCCCCCCCCCCCCCCC(=O)*; γGlu = O=C(O)[C@H](CCC(=O)[*:2])N[*:1]; NMeI = CC[C@H](C)[C@H](NC)C(=O)O; Nle = CCCC[C@H](N)C(=O)O; AEEA = NCCOCCOCC(=O)O; Aib = CC(C)(N)C(=O)O

Legend:
[1] = Size exclusion chromatography for high molecular weight products (HMWP); format: physicochemical; conditions: for HMWP formation (SEC analysis) T14-T0 (%): 14 days; for HMWP formation (SEC analysis) T28-T0 (%): 28 days
Protocol: Dissolved samples were incubated for at least 2 h at room temperature on a rocking table. The main peak purity at time zero (T0) was determined using reversed phase chromatography. The samples were incubated at 40°C for 14 days (T14) and 28 days (T28). The samples were analyzed with reversed phase chromatography and size exclusion chromatography.
Size exclusion chromatography (SEC) was used as an analysis for the formation of high molecular weight products (HMWP, covalent dimers, trimers etc.,). SEC analyses was performed on Thermo Dionex Ultimate UHPLC system with UV detection at 215 nm) equipped with a SEC column (Waters BEH 125Å, 1.7 µm, 300mm x 4.6). Analysis was performed by isocratic elution using 60% buffer B (0.1% TFA in 5:95 H2O: acetonitrile) in buffer A (0.1% TFA in 95:5 H2O: acetonitrile) at a column temperature of 60° C over 20 min. Flowrate was 0.3 mL/min.
Chromatograms were integrated as HMWP (all peaks eluting before the main peak), main peak (assuming this is monomeric peptide) and if relevant LMWP (low molecular weight products, all peaks eluting after main peak). The amount of HMWP was reported as area relative to total area in percent.

[2] = Dynamic Light Scattering (DLS) of peptide oligomerisation/particle formation; format: physicochemical; conditions: average of three replica
Protocol: Samples were prepared by dissolving 800 nmol of each peptide in 400 µl 50 mM phosphate pH 8.0 to a concentration of 2000 µM (ca 10 mg/ml). After fully dissolution for 2 hours on a rocking table, samples were adjusted to pH 7.5 and filtrated through a 0.2 µm Whatman Anotop filter. Comparators were commercially available liraglutide drug product (Victoza®, Novo Nordisk) pH 8.2, and an aliquot of this drug product adjusted to pH 6.7. These samples were filtrated through a 0.02 µm Whatman Anotop filter.
Samples were pipetted as triplicate of 30 µl to an Aurora 384 well microtiter plate, which was centrifuged for 2 minutes at 2200 rpm and then sealed with a Thermo sealing tape 235307. DLS measurements were done in a Wyatt DynaPro platereader III with the following parameters:
The microtiter plate was incubated in a Grant-bio Thermo Shaker PHMP-4 at 40°C with 700 rpm continuous shaking before subsequent DLS measurements. Data analysis was done using Wyatt Dynamics software ver. 7.10.1.21.
Samples were prepared and measured as described in procedure. The hydrodynamic radii (Rh) and associated polydispersity (PD) resulting from cumulant analysis (assuming one species) are shown in the Table 8 as averages of three replica. T0 indicates the measurement at time zero after sample preparation; T5 indicates the measurements of five days of incubation as described above.

[3] = Body mass and body fat content in mouse model of diet-induced obesity (DIO); format: in vivo; conditions: DIO mice; for relative body weight: 28 days, compared to vehicle; for Blood HbA1c / M. Gastrocnemius / M. Soleus / Body weight at termination / Fat mass change from baseline / Lean mass change from baseline / Relative body weight change at termination: Table 17 study; for Body weight at termination / Fat mass change from baseline / Lean mass change from baseline / Relative body weight change at termination: ± SEM
Protocol: SEQ ID NO: 3, SEQ ID NO: 6, SEQ ID NO: 238, SEQ ID NO: 16 and SEQ ID NO: 215 were assessed for their ability to reduce body mass and body fat content in a mouse model of diet-induced obesity (DIO).
Male C57BL/6JRj mice were obtained from JanVier (JanVier Labs, France) at 5 weeks of age. The animals were group-housed during obesity induction and then single housed 2 weeks prior to study start. They were housed under a 12/12 h dark-light cycle, light off at 3 PM. Room temperature was controlled to 22°C ± 1°C, with 60 % ± 20% humidity. For 22-23 weeks prior to treatment start and throughout the study, the animals had ad libitum access to high-fat diet (60% kcal fat, D12492, Research Diets) and tap water.
The animals were randomized according to lean mass (EchoMRI) and body weight. Animals were dosed subcutaneously […] for 30-32 days. In study 1, the animals were dosed with vehicle or SEQ ID NO: 3 (10, 30, 60 or 100 nmol/kg). In study 2, the animals were dosed with vehicle or SEQ ID NO: 6 (10 or 30 nmol/kg), SEQ ID NO: 238 (10 or 30 nmol/kg), SEQ ID NO: 16 (10 or 30 nmol/kg), SEQ ID NO: 215 (10 or 30 nmol/kg) or SEQ ID NO: 3 (30 nmol/kg).
Body weight and food intake were recorded daily until day 28 and body composition evaluated on day 26 using EchoMRI. At termination, blood for HbA1c analyses were collected and M. gastrocnemius and M. soleus were weighed.
Statistical significance was evaluated using One-way analysis of variance with Dunnett's multiple comparison test. P < 0.05 was considered statistically significant.

hCRHR2a = molecular target: T1, hCRHR2a (Homo sapiens, UniProt Q13324); assay: cAMP potency, transiently transfected CHO-K1 cells, hCRHR2a; format: cell-based; conditions: transiently transfected CHO-K1, average n=3; read-out: Transient cell system EC50 (nM) hCRHR 2a
T1 construct: DYK (FLAG); host or cells: CHO-K1, transiently transfected
T1 sequence (Q13324 1-411): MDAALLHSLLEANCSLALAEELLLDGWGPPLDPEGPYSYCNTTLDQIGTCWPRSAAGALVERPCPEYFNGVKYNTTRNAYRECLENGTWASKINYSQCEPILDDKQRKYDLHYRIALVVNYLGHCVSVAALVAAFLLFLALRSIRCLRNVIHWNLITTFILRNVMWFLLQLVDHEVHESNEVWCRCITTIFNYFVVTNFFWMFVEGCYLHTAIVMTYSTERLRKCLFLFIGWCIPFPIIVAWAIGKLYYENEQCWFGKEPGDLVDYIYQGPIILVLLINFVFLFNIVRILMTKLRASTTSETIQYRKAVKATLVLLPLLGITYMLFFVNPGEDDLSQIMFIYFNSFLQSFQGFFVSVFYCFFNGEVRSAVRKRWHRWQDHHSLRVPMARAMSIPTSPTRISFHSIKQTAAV

pCRHR1 = assay: cAMP potency, transiently transfected CHO-K1 cells, pCRHR1; format: cell-based, pig; conditions: transiently transfected CHO-K1, average n=3; read-out: Transient cell system EC50 (nM) pCRHR 1
Protocol: Selected peptides were tested for potency on different species (mouse, rat, porcine) using transiently transfected CHO-K1 cells using the general procedure.

[4] = T0, time zero after sample preparation
[5] = T5, five days incubation at 40°C with continuous shaking

| Structure (SMILES) | HMWP formation (SEC analysis) T14-T0 (%) ([1]; pH 7.0, 40°C) | HMWP formation (SEC analysis) T28-T0 (%) ([1]; pH 7.0, 40°C) | HMWP formation (SEC analysis) T14-T0 (%) ([1]; pH 7.5, 40°C) | HMWP formation (SEC analysis) T28-T0 (%) ([1]; pH 7.5, 40°C) | HMWP formation (SEC analysis) T14-T0 (%) ([1]; pH 8.0, 40°C) | HMWP formation (SEC analysis) T28-T0 (%) ([1]; pH 8.0, 40°C) | PD (%) [2, 4] [%] | Rh (nm) [2, 4] [nm] | PD (%) [2, 5] [%] | Rh (nm) [2, 5] [nm] | relative body weight [3] | Blood HbA1c ([3]; 10 nmol/kg) [%] | M. Gastrocnemius ([3]; 10 nmol/kg) | M. Soleus ([3]; 10 nmol/kg) [g] | Body weight at termination ([3]; 10 nmol/kg) [g] | Fat mass change from baseline ([3]; 10 nmol/kg) [g] | Lean mass change from baseline ([3]; 10 nmol/kg) [g] | Relative body weight change at termination ([3]; 10 nmol/kg) [%] | Blood HbA1c ([3]; 30 nmol/kg) [%] | M. Gastrocnemius ([3]; 30 nmol/kg) [g] | also measured |
| --- | --- | --- | --- | --- | --- | --- | --- | --- | --- | --- | --- | --- | --- | --- | --- | --- | --- | --- | --- | --- | --- |
| CCCC[C@H](NC(=O)[C@@H](NC(=O)[C@H](CCC(=O)O)NC(=O)C(C)(C)NC(=O)[C@H](CC(N)=O)NC(=O)[C@@H](NC(=O)[C@H](CCCCNC(=O)COCCOCCNC(=O)COCCOCCNC(=O)CC[C@H](NC(=O)CC[C@H](NC(=O)CCCCCCCCCCCCCCCCCCC(=O)O)C(=O)O)C(=O)O)NC(=O)[C@H](C)NC(=O)[C@H](CCC(N)=O)NC(=O)[C@H](CCC(=O)O)NC(=O)[C@H](CCCNC(=N)N)NC(=O)[C@H](C)NC(=O)[C@H](C)NC(=O)[C@H](CCCNC(=N)N)NC(=O)[C@H](C)NC(=O)[C@H](CCCNC(=N)N)NC(=O)[C@H](C)NC(=O)[C@H](CCC(N)=O)NC(=O)[C@H](CO)NC(=O)[C@H](CC(C)C)NC(=O)[C@H](CC(C)C)NC(=O)[C@@H](NC(=O)[C@H](CCC(N)=O)NC(=O)[C@H](CC(C)C)NC(=O)[C@H](CC(C)C)NC(=O)CNC(=O)[C@@H](NC(=O)[C@@H]1CCCN1C(=O)[C@@H](NC(=O)[C@H](CC(=O)O)NC(=O)[C@H](CC(C)C)NC(=O)[C@H](CO)NC(=O)[C@H](CC(C)C)NC(=O)[C@@H](NC(=O)[C@@H](NC)[C@@H](C)CC)C(C)C)C(C)C)[C@@H](C)CC)[C@@H](C)CC)[C@@H](C)O)[C@@H](C)CC)C(=O)N[C@@H](C)C(=O)N[C@@H](CCC(=O)O)C(=O)N[C@H](C(N)=O)C(C)C [SEQ ID NO: 215] (H-[NMeI]VLSLDVPIGLLQILLSQARARAAREQAK([AEEA-AEEA-γGlu-γGlu-C20 diacid])TN[Aib]EI[Nle]AEV-NH2) | -0.3 | -0.3 | 0.1 | 0.3 | 0.0 | -0.1 | 10.8 | 5.6 | 15.1 | 5.9 | prolonged dose-dependent reduction | 4.3 ± 0.1 | 0.19 ± 0.002* ** g | 0.012 ± 0.0005 | 40.5 ± 1.2 | -8.7 ± 0.5 | 0.1 ± 0.5 | 85.5 ± 1.3 | 4.4 ± 0.03 | 0.18 ± 0.003 | body weight loss compared to SEQ ID NO: 16 ([3]; 10 nmol/kg, Fig. 5): relative higher body weight loss; relative body weight ([3]; listed as 215): reduce body weight; M. Soleus ([3]; 30 nmol/kg): 0.012 ± 0.0005 g; Body weight at termination ([3]; 30 nmol/kg): 38.9 ± 1.1 g; Fat mass change from baseline ([3]; 30 nmol/kg): -9.9 ± 0.7 g; Lean mass change from baseline ([3]; 30 nmol/kg): -0.5 ± 0.3 g; Relative body weight change at termination ([3]; 30 nmol/kg): 81.8 ± 1.9 %; EC50 (hCRHR2a): 0.013 nM; EC50 (pCRHR1): > 1000 nM |
| CC[C@H](C)[C@H](NC)C(=O)N[C@H](C(=O)N[C@@H](CC(C)C)C(=O)N[C@@H](CO)C(=O)N[C@@H](CC(C)C)C(=O)N[C@@H](CC(=O)O)C(=O)N[C@H](C(=O)N1CCC[C@H]1C(=O)N[C@H](C(=O)NCC(=O)N[C@@H](CC(C)C)C(=O)N[C@@H](CC(C)C)C(=O)N[C@@H](CCC(N)=O)C(=O)N[C@H](C(=O)N[C@@H](CC(C)C)C(=O)N[C@@H](CC(C)C)C(=O)N[C@@H](CCC(=O)O)C(=O)N[C@@H](CCC(N)=O)C(=O)N[C@@H](C)C(=O)N[C@@H](CCCNC(=N)N)C(=O)N[C@@H](C)C(=O)N[C@@H](CCCNC(=N)N)C(=O)N[C@@H](C)C(=O)N[C@@H](C)C(=O)N[C@@H](CCCNC(=N)N)C(=O)N[C@@H](CCC(=O)O)C(=O)N[C@@H](CCC(N)=O)C(=O)N[C@@H](C)C(=O)N[C@@H](CCCCNC(=O)COCCOCCNC(=O)COCCOCCNC(=O)CC[C@H](NC(=O)CC[C@H](NC(=O)CCCCCCCCCCCCCCCCCCC(=O)O)C(=O)O)C(=O)O)C(=O)N[C@H](C(=O)N[C@@H](CC(N)=O)C(=O)NC(C)(C)C(=O)N[C@@H](CCC(=O)O)C(=O)N[C@H](C(=O)N[C@@H](CC(C)C)C(=O)N[C@@H](C)C(=O)N[C@@H](CCC(=O)O)C(=O)N[C@H](C(N)=O)C(C)C)[C@@H](C)CC)[C@@H](C)O)[C@@H](C)CC)[C@@H](C)CC)C(C)C)C(C)C [SEQ ID NO: 16] (H-[NMeI]VLSLDVPIGLLQILLEQARARAAREQAK([AEEA-AEEA-γGlu-γGlu-C20 diacid])TN[Aib]EILAEV-NH2) | -0.3 | -0.3 | 0.0 | 0.0 | -0.2 | -0.3 | 10.5 | 4.7 | 11.6 | 4.7 | reduce body weight; also recorded: prolonged dose-dependent reduction | 4.4 ± 0.1 | 0.19 ± 0.003 g | 0.013 ± 0.0004 | 44 ± 1.1 | -5.6 ± 0.5 | 0.6 ± 0.3 | 91.1 ± 1.2 | 4.1 ± 0.1 | 0.19 ± 0.002 | M. Soleus ([3]; 30 nmol/kg): 0.013 ± 0.0009 g; Body weight at termination ([3]; 30 nmol/kg): 38.3 ± 0.9 g; Fat mass change from baseline ([3]; 30 nmol/kg): -10.5 ± 0.6 g; Lean mass change from baseline ([3]; 30 nmol/kg): -0.6 ± 0.3 g; Relative body weight change at termination ([3]; 30 nmol/kg): 79.9 ± 1.4 %; EC50 (hCRHR2a): 0.025 nM; EC50 (pCRHR1): > 5000 nM |
